Reference: patent US20090197853A1, “METHODS AND COMPOSITIONS OF TREATING CANCER” (priority 2005, published 2009)
“Also recorded” adds a separate entry of the source.

Key:
[1] = test system: metallothionein gene family members and ZnT1; experiment: Northern blot analysis, A549 cultures; format: cell-based, human; settings: for Metallothionein transcript levels: A549, 24 hours, 50 μM MGd, Zn(OAc)2 100 μM, CdCl2 50 μM, FIG. 2B
Procedure: Methods: Northern Blot Analysis—Plateau phase cultures of A549 cells were prepared as described above, except that T-25 flasks were used, and the number of cells initially plated scaled accordingly. Cultures were treated with 50 μM MGd, 5 μM Gd(OAc)3 or 5% mannitol for 4 hours, whereupon cultures were washed twice with PBS and RNA harvested as above. Alternatively, 7-day plateau phase A549 or PC3 cultures were treated with 50 μM MGd, 50-100 μM Zn(OAc)2, 50 μM CdCl2 or 5% mannitol for 24 hours (A549) or 4 hours (PC3) prior to washing and RNA analysis. Exponential phase Ramos cultures were treated for 6 hours. Northern blots were conducted and analyzed. Radio labeled metallothionein probe, designed to bind to a 113-bp region of 3′-UTR sequences from multiple metallothionein gene family members, was generated using 5′-[…]-3′ (forward) and 5′-[…]-3′ (reverse) PCR primers and the NEBlot kit (New England Biolabs, Inc.). Radio labeled ZnT1 probe was generated in a similar fashion using 5′-[…]-3′ (forward) and 5′-[…]-3′ (reverse) primers.

A549 cells [2] = experiment: Intracellular free zinc (FluoZin-3 fluorescence), A549; format: cell-based, human; settings: for Increase in cellular FluoZin-3 fluorescence: A549, MGd in the absence of actinomycin D
Procedure: (§1) Methods: The concentration of intracellular free zinc was assessed using the ion-specific fluorescent probe, FluoZin-3-AM™ (FluoZin-3, Molecular Probes, Inc.). […] Following treatment, cells were isolated by centrifugation. Cell pellets were washed and re-suspended in a solution of 0.5% BSA in PBS.

Ramos cells [3] = experiment: Intracellular free zinc (FluoZin-3 fluorescence), Ramos; format: cell-based; settings: 10 μM MGd or 50 μM zinc alone
Procedure: as §1, with “Methods: Intracellular Free Zinc.” for “Methods:”

A549 cells [4] = experiment: Proliferation (tetrazole reduction/MTT), A549; format: cell-based, human; settings: for A549 cell proliferation: exponential phase, 24 hours treatment plus 48 hr growth, zinc up to 100 μM
Procedure: (§2) Methods: The proliferation of exponential phase cultures was assessed by colorimetric assay. In brief, 2×10^5 suspension cells per well were seeded on 96-well V-bottom microtiter plates. Stock solutions of control vehicle, MGd or Zn(OAc)2 in medium were added and plates were incubated at 37° C. under a 5% CO2/95% air atmosphere. After 24 hours, medium was replaced with fresh medium. After 2 additional days, medium was exchanged with fresh medium (150 μL/well) supplemented with 3-(4,5-dimethylthiazol-2-yl)-2,5-diphenyltetrazolium bromide (MTT, 0.5 mg/mL, Sigma Biochemical, St. Louis, Mo.). Plates were incubated at 37° C. and viable cells measured.

[5] = test system: Ramos B-cell lymphoma cells; experiment: Proliferation, Ramos; format: cell-based; settings: 50 μM zinc
Procedure: as §2
as §2, with “Cellular Proliferation—The” for “Methods: The”

PC3 cells = experiment: Colony forming assay, PC3; format: cell-based; settings: 10 μM MGd, 75 μM zinc
Thioredoxin reductase = experiment: Lipoate reduction (thioredoxin reductase activity) in intact A549 cells; format: cell-based, human; settings: for Inhibition of lipoate reduction: plateau phase A549, two-hour treatment
Procedure: Methods: Lipoate Reduction. Thioredoxin reductase activity was assessed by measuring the rate of lipoate reduction. In brief, A549 or PC3 cells (10,000 cells/well) were plated on 96-well plates and allowed to adhere overnight and grow two additional days until confluent. Cells were treated with MGd, zinc, or 5% mannitol for 2-4 hours, as indicated. Medium was removed, cells were washed with Hanks Balanced Salt Solution (HBSS), and a solution of 5 mM lipoic acid and 1 mM 5,5′-dithiobis(2-nitrobenzoic acid) in HBSS (100 μL/well) was added. Plates were incubated at ambient temperature in the dark. At chosen time intervals, plate absorbance was measured at 405-650 nm. Plate absorbances were normalized to wells containing neither exogenous zinc nor texaphyrin complex to allow plate-to-plate comparison. In some experiments, L-buthionine-[S,R]-sulfoximine (BSO, 100 μM) was added 24 hours prior to MGd or zinc treatment, to inhibit any contribution to lipoate reduction made by glutathione-dependent pathways (28). Actinomycin D (2.5 μg/mL) or cycloheximide (10 μg/mL), where present, was added 1 hour prior to texaphyrin or zinc treatment. Viability was checked on parallel plates using the tetrazolium dye 3-(4,5-dimethylthiazol-2-yl)-5-(3-carboxymethoxyphenyl)-2-(4-sulfophenyl)-2H-tetrazolium (MTS) following the manufacturers protocol (Promega Corp.).

Ramos cells [6] = experiment: Annexin-V apoptosis, Ramos; format: cell-based; settings: single agent alone
Procedure: Methods: Annexin V/PI. Cells from exponential phase cultures were treated with MGd, zinc, or control (5% mannitol) solution for 24 or 48 hours. After incubation, cells were harvested and washed twice with a solution of 0.5% bovine serum albumin (BSA) in Hanks buffered saline (HBSS). An aliquot of cells (1×10^6) was added to 500 μL diluted binding buffer from the ANNEXIN-V PI Kit (BD Biosciences, San Jose, Calif.). Cells were pelleted, re-suspended in 100 μL of diluted binding buffer, and treated with the ANNEXIN-V PI reagent as per the manufacturer's protocol.

Ramos cells [7] = experiment: Mitochondrial membrane potential (JC-1), Ramos; format: cell-based; settings: single agent alone
Procedure: Mitchondrial membrane potential. Loss of the mitochondrial membrane potential (ΔΨm) of cells was measured by the use of JC-1 (Molecular Probes, Inc., Eugene, Oreg.). Cells undergoing early apoptosis lose fluorescence in the 585 nm channel and gain it in the 530 nm channel. Briefly, cells cultured as described above were washed twice with complete medium, re-suspended in 0.5 mL JC-1 solution (10 μg/mL in complete medium), and incubated at 37° C. for 15 minutes. Cells were isolated by centrifugation, washed once and then re-suspended in 0.5 mL solution of 0.5% BSA in PBS and assayed immediately on the flow cytometer.

Row | Structure (SMILES) | Metallothionein transcript levels [1] | Metallothionein transcript levels ([1]; listed as zinc) | Cell-associated fluorescence of FluoZin-3 at 530 nm (A549 cells [2]; A549, 4 hours, Zn(OAc)2 50-100 μM) | FluoZin-3 fluorescence (Ramos cells [3]; by 12 hours) | FluoZin-3 fluorescence (Ramos cells [3]; within 2 hours) | A549 cell proliferation (A549 cells [4]) | Cellular proliferation [5] | Surviving fraction (PC3 cells) | Inhibition of lipoate reduction (Thioredoxin reductase) | Annexin-V signal (Ramos cells [6]) | JC-1 fluorescence (Ramos cells [7]) | Induction of metallothionein gene family members and ZnT1 (Northern blot) ([1]; A549 plateau phase, 4 hours, 50 μM MGd or 5 μM Gd(OAc)3) | Increase in cellular FluoZin-3 fluorescence (A549 cells [2]; serum medium) [fold] | Increase in cellular FluoZin-3 fluorescence (A549 cells [2]; serum-free medium) [fold] | Effect of MGd on the anti-proliferative activity of zinc (A549 cells [4]; A549, all MGd concentrations tested) | Effect of MGd on inhibition of lipoate reduction by zinc (Thioredoxin reductase; A549) | Apparent inhibitory concentration of MGd (Thioredoxin reductase; A549, dose-dependent effect of MGd on inhibition with zinc) | Concentration above which the effect of MGd on lipoate reduction saturated (Thioredoxin reductase; A549, potentiation of zinc inhibition)
1 | CC(=O)[O-].CC(=O)[O-].[Zn+2] [Zn(OAc)2, Zinc acetate] | significant increase | raised | significantly increased | returned to baseline levels | small increases | modestly inhibited | without effect | without effect | ≤ 30% | No significant change | No significant change | – | – | – | – | – | – | –
2 | CC(=O)[O-].CC(=O)[O-].CCc1c(CC)c2cc3nc(cnc4cc(OCCOCCOCCOC)c(OCCOCCOCCOC)cc4ncc4nc(cc1[n-]2)C(CCCO)=C4C)C(C)=C3CCCO.O.[Gd+3] [MGd, Motexafin gadolinium] | raised; also recorded: significant increase | – | – | returned to baseline levels | small increases | no effect on proliferation | without effect | without effect | approximately 10% | No significant change | No significant change | confirmed the induction; also recorded: induced | 1.2 | 1.1 | enhanced the anti-proliferative activity of zinc | potentiated | approximately 2.5 μM | approximately 5 μM
